In patent US8962880B2, “Amorphous asiatic tromethamine salt and preparation method thereof” (Shanghai Institute of Pharmaceutical Industry, priority 2011, dated 2015):
≈ marks a conversion by molar mass, not a printed value.

Experiments:
[1] = in vivo, 50 mg

Structure (SMILES)	solubility (physchem; organic solvent or mixture) [mg/mL]	solubility (physchem; water) [mg/mL]	bioavailability [1]
C[C@H]1[C@H](C)CC[C@]2(C(=O)O)CC[C@]3(C)C(=CC[C@@H]4[C@@]5(C)C[C@@H](O)[C@H](O)[C@@](C)(CO)[C@@H]5CC[C@]43C)[C@H]12 [asiatic acid, 2α,3β,23-trihydroxy-ursa-12-en-28-oic acid]	33.1 (≈ 67.7 mM)	0.03 (≈ 0.0614 mM)	
C[C@H]1[C@H](C)CC[C@]2(C(=O)O)CC[C@]3(C)C(=CC[C@@H]4[C@@]5(C)C[C@@H](O)[C@H](O)[C@@](C)(CO)[C@@H]5CC[C@]43C)[C@H]12.NC(CO)(CO)CO [comparative sample, asiatic acid tromethamine salt]			ca. 7.6%
